These results are taken from ChEMBL document CHEMBL4387769 (Bioorg Med Chem, 2019).

The target of assay [1] is 5-hydroxytryptamine receptor 2A (Homo sapiens, UniProt P28223). In words: Displacement of [3H]ketanserin from human 5HT2AR expressed in CHO-K1 cell membranes after 1 hr by microbeta plate reader method. (In general: In a radioligand displacement assay an active substance lowers the binding of a labelled ligand.)
For assay [2], the target named is T1, 5-hydroxytryptamine receptor 1A (Homo sapiens, UniProt P08908).
T1 sequence (P08908 whole entry): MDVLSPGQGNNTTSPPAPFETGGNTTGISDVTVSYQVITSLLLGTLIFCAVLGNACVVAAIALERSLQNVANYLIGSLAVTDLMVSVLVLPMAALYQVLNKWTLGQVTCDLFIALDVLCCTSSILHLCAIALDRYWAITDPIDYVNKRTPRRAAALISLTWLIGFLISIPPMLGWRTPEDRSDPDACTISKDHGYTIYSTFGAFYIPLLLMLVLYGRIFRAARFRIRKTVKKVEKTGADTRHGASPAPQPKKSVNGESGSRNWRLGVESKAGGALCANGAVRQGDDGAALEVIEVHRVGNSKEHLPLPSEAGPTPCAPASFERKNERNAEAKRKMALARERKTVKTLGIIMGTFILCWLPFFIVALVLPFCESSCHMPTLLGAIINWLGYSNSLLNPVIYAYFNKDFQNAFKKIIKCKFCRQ
In words: Displacement of [3H]-8-OH-DPAT from human 5HT1AR expressed in HEK293 cell membranes after 1 hr by microbeta plate reader method.

Assay [3] concerns the target 5-hydroxytryptamine receptor 6 (Homo sapiens, UniProt P50406). Description: Displacement of [3H]LSD from human 5HT6 receptor expressed in HEK293 cell membranes after 1 hr by microbeta plate reader method.
Assay [4] concerns the target D(2) dopamine receptor (Homo sapiens, UniProt P14416). Description: Displacement of [3H]raclopride from human dopamine D2L receptor expressed in HEK293 cells incubated for 1 hr by microbeta plate reader method. It counts as cell-based.
For assay [5], the target named is T2, 5-hydroxytryptamine receptor 7 (Homo sapiens, UniProt P34969). In words: Displacement of [3H]5-CT from human 5HT7B receptor expressed in HEK293 cell membranes after 1 hr by microbeta plate reader method.
T2 sequence (P34969 whole entry): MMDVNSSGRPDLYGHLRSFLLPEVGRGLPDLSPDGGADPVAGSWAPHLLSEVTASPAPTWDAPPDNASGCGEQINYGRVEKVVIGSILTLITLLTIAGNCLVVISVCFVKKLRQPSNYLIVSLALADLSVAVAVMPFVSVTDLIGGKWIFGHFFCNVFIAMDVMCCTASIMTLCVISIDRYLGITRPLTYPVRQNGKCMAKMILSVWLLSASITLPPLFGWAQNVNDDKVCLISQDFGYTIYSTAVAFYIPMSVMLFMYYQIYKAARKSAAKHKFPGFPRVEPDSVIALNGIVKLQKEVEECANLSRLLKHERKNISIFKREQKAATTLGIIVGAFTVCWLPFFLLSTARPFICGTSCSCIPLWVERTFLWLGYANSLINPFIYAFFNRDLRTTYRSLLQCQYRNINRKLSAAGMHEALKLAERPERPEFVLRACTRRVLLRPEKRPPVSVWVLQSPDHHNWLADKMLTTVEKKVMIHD
The target of assay [6] is D(2) dopamine receptor (Rattus norvegicus, UniProt P61169). Description: Displacement of [3H]spiperone from dopamine D2 receptor in Sprague-Dawley rat striatal membranes incubated for 40 mins. Set-up: species or system Striatum, Membrane.
Chain of D(2) dopamine receptor (Rattus norvegicus, UniProt P61169) (P61169 whole entry): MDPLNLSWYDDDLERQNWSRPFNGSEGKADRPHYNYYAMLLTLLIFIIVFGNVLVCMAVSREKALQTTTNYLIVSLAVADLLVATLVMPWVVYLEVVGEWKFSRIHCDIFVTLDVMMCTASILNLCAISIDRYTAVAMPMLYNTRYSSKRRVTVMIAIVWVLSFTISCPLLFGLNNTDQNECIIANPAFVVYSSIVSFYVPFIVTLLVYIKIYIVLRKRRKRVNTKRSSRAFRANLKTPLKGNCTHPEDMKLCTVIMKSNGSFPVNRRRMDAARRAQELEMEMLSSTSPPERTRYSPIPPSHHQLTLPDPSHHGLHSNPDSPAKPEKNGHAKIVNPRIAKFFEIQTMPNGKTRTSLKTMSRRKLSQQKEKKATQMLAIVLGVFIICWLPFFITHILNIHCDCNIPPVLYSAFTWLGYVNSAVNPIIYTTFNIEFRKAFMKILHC
The target of assay [7] is 5-hydroxytryptamine receptor 2A (Rattus norvegicus, UniProt P14842). Description: Displacement of [3H]ketanserin from 5HT2A receptor in rat cortical membranes incubated for 15 mins by liquid scintillation spectrometry. It counts as cell membranes.
Chain of 5-hydroxytryptamine receptor 2A (Rattus norvegicus, UniProt P14842) (P14842 whole entry): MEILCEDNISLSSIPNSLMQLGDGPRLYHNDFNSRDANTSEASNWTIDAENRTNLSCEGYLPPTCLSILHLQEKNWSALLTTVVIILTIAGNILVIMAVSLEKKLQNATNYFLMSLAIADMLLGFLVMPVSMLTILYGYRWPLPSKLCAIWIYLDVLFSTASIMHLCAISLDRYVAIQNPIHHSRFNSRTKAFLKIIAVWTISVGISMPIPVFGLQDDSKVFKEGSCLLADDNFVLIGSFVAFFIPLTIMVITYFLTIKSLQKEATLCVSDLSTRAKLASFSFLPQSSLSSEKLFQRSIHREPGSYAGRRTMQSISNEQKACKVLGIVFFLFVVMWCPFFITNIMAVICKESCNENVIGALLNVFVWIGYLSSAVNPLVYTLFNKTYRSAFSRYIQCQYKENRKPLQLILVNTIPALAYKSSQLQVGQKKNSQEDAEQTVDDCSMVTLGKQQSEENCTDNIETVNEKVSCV
Assay [8] concerns the target T2, 5-hydroxytryptamine receptor 7. Description: Displacement of [3H]5-CT from human 5HT7 receptor expressed in COS7 cells incubated for 30 mins by liquid scintillation counting method. It counts as cell-based.
Assay [9] shares this target. In words: Binding affinity to 5HT7 (unknown origin).

Where only a bound is given, the exact number is not on record here.

Chain of D(2) dopamine receptor (Homo sapiens, UniProt P14416) (P14416 whole entry): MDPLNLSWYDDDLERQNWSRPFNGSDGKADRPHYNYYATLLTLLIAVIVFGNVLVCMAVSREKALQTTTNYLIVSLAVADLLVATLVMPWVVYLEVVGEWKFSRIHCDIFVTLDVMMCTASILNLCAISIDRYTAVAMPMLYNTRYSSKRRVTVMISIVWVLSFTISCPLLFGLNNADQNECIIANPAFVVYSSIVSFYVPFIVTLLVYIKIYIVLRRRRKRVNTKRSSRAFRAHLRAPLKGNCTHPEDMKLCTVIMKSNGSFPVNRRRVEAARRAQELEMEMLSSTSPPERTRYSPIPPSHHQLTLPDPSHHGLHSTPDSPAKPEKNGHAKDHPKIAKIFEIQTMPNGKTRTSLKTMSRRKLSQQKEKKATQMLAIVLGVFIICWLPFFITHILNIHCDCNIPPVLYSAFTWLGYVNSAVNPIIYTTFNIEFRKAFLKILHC
Chain of 5-hydroxytryptamine receptor 2A (Homo sapiens, UniProt P28223) (P28223 whole entry): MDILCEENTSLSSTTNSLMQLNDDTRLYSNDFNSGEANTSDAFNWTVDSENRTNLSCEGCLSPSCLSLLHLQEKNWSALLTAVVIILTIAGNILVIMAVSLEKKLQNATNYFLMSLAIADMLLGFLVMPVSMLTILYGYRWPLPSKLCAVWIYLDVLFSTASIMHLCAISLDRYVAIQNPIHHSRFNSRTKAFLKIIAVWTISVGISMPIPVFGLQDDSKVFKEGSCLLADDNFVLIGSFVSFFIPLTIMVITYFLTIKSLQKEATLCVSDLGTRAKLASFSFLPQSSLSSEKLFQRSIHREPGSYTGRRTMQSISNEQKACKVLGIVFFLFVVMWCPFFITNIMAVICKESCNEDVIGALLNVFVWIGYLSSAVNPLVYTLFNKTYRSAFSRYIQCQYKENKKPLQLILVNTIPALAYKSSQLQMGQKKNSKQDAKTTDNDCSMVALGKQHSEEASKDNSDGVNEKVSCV
Chain of 5-hydroxytryptamine receptor 6 (P50406 whole entry): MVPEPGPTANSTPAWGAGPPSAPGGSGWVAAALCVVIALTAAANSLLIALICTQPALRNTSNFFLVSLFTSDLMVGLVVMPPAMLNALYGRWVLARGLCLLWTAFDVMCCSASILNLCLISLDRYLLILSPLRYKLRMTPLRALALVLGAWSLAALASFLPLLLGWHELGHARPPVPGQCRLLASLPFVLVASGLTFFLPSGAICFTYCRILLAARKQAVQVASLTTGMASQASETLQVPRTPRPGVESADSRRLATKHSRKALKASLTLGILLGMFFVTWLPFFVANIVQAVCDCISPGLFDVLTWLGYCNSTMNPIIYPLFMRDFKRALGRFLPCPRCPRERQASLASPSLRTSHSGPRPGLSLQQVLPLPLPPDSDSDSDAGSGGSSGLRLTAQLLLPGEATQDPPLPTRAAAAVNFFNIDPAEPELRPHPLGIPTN

`O=C1c2cccc3cccc(c23)N1CCCCCCN1CCN(c2ccccc2Cl)CC1`: the inhibitory constant (Ki) in assay [1] worked out at 540 nM; in [2], 66 nM; in assay [3], 1680 nM; on D(2) dopamine receptor [4] it was 58 nM; in assay [5], 336 nM.

In the case of `O=S1(=O)c2cccc3cccc(c23)N1CCCCCCN1CCN(c2ccccc2F)CC1`, the inhibition constant Ki amounted to 376 nM in [1]; 81 nM in [2]; 710 nM in assay [3]; 90 nM at D(2) dopamine receptor [4]; 203 nM in assay [5].

Consider `O=S1(=O)c2cccc3cccc(c23)N1CCCN1CCN(c2ccc(F)cc2)CC1` [FANANSERIN], for which the inhibitory constant (Ki) on D(2) dopamine receptor [6] was greater than 1000 nM.

Take `O=S1(=O)c2cccc3cccc(c23)N1CCCN1CCN(c2cccc(F)c2)CC1`: the values for the Ki (in assay [7]; on D(2) dopamine receptor [6]) were 18 nM and greater than 1000 nM, respectively.

For `O=S1(=O)c2cccc3cccc(c23)N1CCCN1CCN(c2ccc(Br)cc2)CC1`, the Ki in [7] is 7 nM; at D(2) dopamine receptor [6], greater than 1000 nM.

Take `O=C1c2cccc3cccc(c23)N1CCCCCCN1CCN(c2cccc(C(F)(F)F)c2)CC1`: the Ki in assay [1] turned out to be 773 nM; in assay [2] it was 54 nM; in [3] it was 2210 nM; at D(2) dopamine receptor [4], 496 nM; in [5] it was 291 nM.

As for `O=S1(=O)c2cccc3cccc(c23)N1CCCCCCN1CCN(c2ccc(Cl)cc2)CC1`, the inhibition constant (Ki) amounted to 147 nM in [1]; 197 nM in assay [2]; 433 nM in [3]; 336 nM at D(2) dopamine receptor [4]; 280 nM in assay [5].

For the compound `O=C1Nc2cccc3c2C1(CCCCN1CCN(c2ccccc2Cl)CC1)CCC3` (configuration not stated), the Ki in [8] came to 12 nM.

`O=C1c2cccc3cccc(c23)N1CCCCCCN1CCN(c2cccc(Cl)c2Cl)CC1`: the Ki in assay [1] amounted to 406 nM; in assay [2] it was 122 nM; in assay [3], 918 nM; on D(2) dopamine receptor [4], 94 nM; in assay [5] it was 5100 nM.

In the case of `O=S1(=O)c2cccc3cccc(c23)N1CCCN1CCN(c2ccc(Cl)cc2)CC1`, the Ki is 5 nM in assay [7] and greater than 1000 nM on D(2) dopamine receptor [6].

In assay [9], `COc1ccccc1N1CCN(CCCCCCN2c3cccc4cccc(c34)S2(=O)=O)CC1` displayed a Ki of 200 nM.

As to `O=S1(=O)c2cccc3cccc(c23)N1CCCCCCN1CCN(c2ccccc2Cl)CC1`, the Ki in [1] is 548 nM; in assay [2] it was 106 nM; in [3], 507 nM; on D(2) dopamine receptor [4], 142 nM; in [5] it was 286 nM.

`O=S1(=O)c2cccc3cccc(c23)N1CCCCCCN1CCN(c2ccc(Cl)c(Cl)c2)CC1`: the Ki in [1] came to 251 nM; in assay [2], 79 nM; in [3], 225 nM; at D(2) dopamine receptor [4], 254 nM; in assay [5] it was 404 nM.

Consider `O=S1(=O)c2cccc3cccc(c23)N1CCCCCN1CCN(c2ccccc2)CC1`, for which affinity in assay [9] was put at a Ki of 200 nM.

In the case of `O=C1c2cccc3cccc(c23)N1CCCCCCN1CCN(c2cccc(Cl)c2)CC1`, the Ki in assay [1] stood at 429 nM; in assay [2], 43 nM; in assay [3], 480 nM; at D(2) dopamine receptor [4] it was 75 nM; in assay [5] it was 53 nM.

In the case of `O=C1c2cccc3cccc(c23)N1CCCCCCN1CCN(c2ccc(Br)cc2)CC1`, the Ki in [1] is 1490 nM; in assay [2], 688 nM; in assay [3] it was 3190 nM; on D(2) dopamine receptor [4] it was 204 nM; in assay [5], 1830 nM.

As for `O=S1(=O)c2cccc3cccc(c23)N1CCCN1CCN(c2ccccc2F)CC1`, the Ki in assay [7] is 3 nM; at D(2) dopamine receptor [6] it was greater than 1000 nM.

Regarding `O=S1(=O)c2cccc3cccc(c23)N1CCCCCCN1CCN(c2ccc(C(F)(F)F)cc2)CC1`, the Ki in assay [1] was 1530 nM; in assay [2], 989 nM; in assay [3], 937 nM; on D(2) dopamine receptor [4], 927 nM; in assay [5] it was 6000 nM.

Turning to `O=C1c2cccc3cccc(c23)N1CCCCCCN1CCN(c2ccc(Cl)cc2)CC1`, the Ki in [1] stood at 423 nM; in assay [2], 181 nM; in [3], 689 nM; on D(2) dopamine receptor [4], 197 nM; in assay [5], 124 nM.

As to `O=S1(=O)c2cccc3cccc(c23)N1CCCCCCN1CCN(c2cccc(C(F)(F)F)c2)CC1`, the Ki in [1] turned out to be 596 nM; in assay [2], 132 nM; in assay [3], 374 nM; at D(2) dopamine receptor [4] it was 304 nM; in assay [5], 167 nM.

Take `O=S1(=O)c2cccc3cccc(c23)N1CCCCCCN1CCN(c2cccc(Cl)c2Cl)CC1`: the inhibition constant (Ki) worked out at 177 nM in assay [1]; 149 nM in [2]; 237 nM in [3]; 220 nM at D(2) dopamine receptor [4]; 140 nM in assay [5].

Consider `O=S1(=O)c2cccc3cccc(c23)N1CCCCCCN1CCN(c2cccc(Cl)c2)CC1`, for which the Ki was found to be 322 nM in assay [1]; 46 nM in assay [2]; 624 nM in assay [3]; 121 nM on D(2) dopamine receptor [4]; 432 nM in assay [5].

Consider `O=C1c2cccc3cccc(c23)N1CCCCCCN1CCN(c2ccccc2C(F)(F)F)CC1`, for which the Ki came to 1770 nM in assay [1]; 599 nM in assay [2]; 1130 nM in assay [3]; 161 nM at D(2) dopamine receptor [4]; 17800 nM in assay [5].

`O=C1c2cccc3cccc(c23)N1CCCCCCN1CCN(c2ccc(Cl)c(Cl)c2)CC1`: the Ki was 493 nM in assay [1]; 161 nM in assay [2]; 1860 nM in assay [3]; 246 nM at D(2) dopamine receptor [4]; 166 nM in [5].

`COc1ccccc1N1CCN(CCCCN2c3cccc4cccc(c34)S2(=O)=O)CC1` displayed a Ki in assay [9] of 200 nM. In other words, the sub-micromolar range.

As to `COc1ccccc1N1CCN(CCCCCN2c3cccc4cccc(c34)S2(=O)=O)CC1`, in [9], the affinity, expressed as Ki, was 251 nM.

For `O=C1c2cccc3cccc(c23)N1CCCCCCN1CCN(c2ccc(C(F)(F)F)cc2)CC1`, the inhibitory constant (Ki) in [1] was found to be 4350 nM; in assay [2] it was 536 nM; in assay [3], 2040 nM; on D(2) dopamine receptor [4], 945 nM; in assay [5], 49000 nM.

The compound `O=S1(=O)c2cccc3cccc(c23)N1CCCCCCN1CCN(c2ccccc2)CC1` yielded an inhibition constant Ki in [9] greater than 1000 nM.

In turn, `O=S1(=O)c2cccc3cccc(c23)N1CCCCN1CCN(c2ccccc2)CC1` showed a Ki in [9] of 1000 nM.

With `COc1ccc(N2CCN(CCCCC34CCCc5cccc(c53)NC4=O)CC2)cc1` (configuration not stated), the Ki in assay [8] is 20 nM.

In the case of `O=C1c2cccc3cccc(c23)N1CCCCCCN1CCN(c2ccccc2F)CC1`, the Ki is 524 nM in assay [1]; 64 nM in [2]; 1730 nM in [3]; 320 nM on D(2) dopamine receptor [4]; 420 nM in assay [5].

One may read the Ki as a measure of affinity in units of concentration, obtained from inhibition or displacement. Read a high Ki as a looser hold on the target.
